Test results: ChEMBL document CHEMBL1629655, “Affinity of Tomopenem (CS-023) for penicillin-binding proteins in Staphylococcus aureus, Escherichia coli, and Pseudomonas aeruginosa” (Antimicrob Agents Chemother, 2009)
≈ marks a conversion by molar mass, not a printed value.

How the values were obtained:
Staphylococcus aureus [1] = experiment: Antibacterial activity against Staphylococcus aureus ATCC 6538P by microdilution method; type: functional, organism-based
[2] = Displacement of [14C]benzylpenicillin from PBP1B in Escherichia coli NIHJ
Pseudomonas aeruginosa [3] = experiment: Antibacterial activity against Pseudomonas aeruginosa ATCC 15692 by microdilution method; type: functional, organism-based
Staphylococcus aureus [4] = experiment: Ratio of MIC for Staphylococcus aureus SRR2a to MIC for Staphylococcus aureus ATCC 6538P; type: functional
Staphylococcus aureus [5] = experiment: Ratio of MIC for Staphylococcus aureus SIR2a selected at 2 times MIC of imipenem to MIC for Staphylococcus aureus ATCC 6538P; type: functional
[6] = Displacement of [14C]benzylpenicillin from PBP1 in Staphylococcus aureus ATCC 6538P
Escherichia coli [7] = experiment: Ratio of MIC for Escherichia coli EIR4a to MIC for Escherichia coli NIHJ; type: functional
[8] = Displacement of [14C]benzylpenicillin from PBP4 in Pseudomonas aeruginosa ATCC 15692
[9] = Displacement of [14C]benzylpenicillin from PBP6 Escherichia coli NIHJ
Staphylococcus aureus [10] = experiment: Antibacterial activity against Staphylococcus aureus SIR2a selected at 2 times MIC of imipenem by microdilution method; type: functional
Escherichia coli [11] = experiment: Antibacterial activity against Escherichia coli NIHJ by microdilution method; type: functional, organism-based
Escherichia coli [12] = experiment: Antibacterial activity against Escherichia coli ERR2a selected at 2 times MIC of tomopenem by microdilution method; type: functional
Escherichia coli [13] = experiment: Ratio of MIC for Escherichia coli EMR2a to MIC for Escherichia coli NIHJ; type: functional
Escherichia coli [14] = experiment: Antibacterial activity against Escherichia coli EIR4b selected at 4 times MIC of imipenem by microdilution method; type: functional
Escherichia coli [15] = experiment: Antibacterial activity against Escherichia coli EIR8a selected at 8 times MIC of imipenem by microdilution method; type: functional
Pseudomonas aeruginosa [16] = experiment: Ratio of MIC for Pseudomonas aeruginosa PMR2a to MIC for Pseudomonas aeruginosa ATCC 15692; type: functional
Escherichia coli [17] = experiment: Antibacterial activity against Escherichia coli ERR4a selected at 4 times MIC of tomopenem by microdilution method; type: functional
Pseudomonas aeruginosa [18] = experiment: Antibacterial activity against Pseudomonas aeruginosa PIR2a selected at 2 times MIC of imipenem by microdilution method; type: functional
Escherichia coli [19] = experiment: Ratio of MIC for Escherichia coli EIR2b to MIC for Escherichia coli NIHJ; type: functional
Escherichia coli [20] = experiment: Ratio of MIC for Escherichia coli ERR4a to MIC for Escherichia coli NIHJ; type: functional
Pseudomonas aeruginosa [21] = experiment: Ratio of MIC for Pseudomonas aeruginosa PRR4a to MIC for Pseudomonas aeruginosa ATCC 15692; type: functional
[22] = Displacement of [14C]benzylpenicillin from PBP3 in Pseudomonas aeruginosa ATCC 15692
[23] = Displacement of [14C]benzylpenicillin from PBP5 in Escherichia coli NIHJ
Escherichia coli [24] = experiment: Antibacterial activity against Escherichia coli EMR2a selected at 2 times MIC of meropenem by microdilution method; type: functional
Pseudomonas aeruginosa [25] = experiment: Antibacterial activity against Pseudomonas aeruginosa PMR2a selected at 2 times MIC of meropenem by microdilution method; type: functional
Pseudomonas aeruginosa [26] = experiment: Ratio of MIC for Pseudomonas aeruginosa PIR2a to MIC for Pseudomonas aeruginosa ATCC 15692; type: functional
Escherichia coli [27] = experiment: Ratio of MIC for Escherichia coli EIR4b to MIC for Escherichia coli NIHJ; type: functional
Escherichia coli [28] = experiment: Antibacterial activity against Escherichia coli ERR2b selected at 2 times MIC of tomopenem by microdilution method; type: functional
Escherichia coli [29] = experiment: Antibacterial activity against Escherichia coli ERR8a selected at 8 times MIC of tomopenem by microdilution method; type: functional
Staphylococcus aureus [30] = experiment: Antibacterial activity against Staphylococcus aureus SRR2a selected at 2 times MIC of tomopenem by microdilution method; type: functional
Escherichia coli [31] = experiment: Antibacterial activity against Escherichia coli EIR2b selected at 2 times MIC of imipenem by microdilution method; type: functional
[32] = Displacement of [14C]benzylpenicillin from PBP3 in Staphylococcus aureus ATCC 6538P
Escherichia coli [33] = experiment: Ratio of MIC for Escherichia coli EIR2a to MIC for Escherichia coli NIHJ; type: functional
Staphylococcus aureus [34] = experiment: Ratio of MIC for Staphylococcus aureus SMR2a to MIC for Staphylococcus aureus ATCC 6538P; type: functional
Escherichia coli [35] = experiment: Ratio of MIC for Escherichia coli EIR8a to MIC for Escherichia coli NIHJ; type: functional
[36] = Displacement of [14C]benzylpenicillin from PBP3 in Escherichia coli NIHJ
Staphylococcus aureus [37] = experiment: Ratio of MIC for Staphylococcus aureus SMR4a to MIC for Staphylococcus aureus ATCC 6538P; type: functional
[38] = Displacement of [14C]benzylpenicillin from PBP 5 in Pseudomonas aeruginosa ATCC 15692
[39] = Displacement of [14C]benzylpenicillin from PBP1A in Escherichia coli NIHJ
[40] = Displacement of [14C]benzylpenicillin from PBP2 Staphylococcus aureus ATCC 6538P
[41] = Displacement of [14C]benzylpenicillin from PBP4 in Escherichia coli NIHJ
Escherichia coli [42] = experiment: Ratio of MIC for Escherichia coli ERR2a selected to MIC for Escherichia coli NIHJ; type: functional
[43] = Displacement of [14C]benzylpenicillin from PBP2 in Pseudomonas aeruginosa ATCC 15692
Escherichia coli [44] = experiment: Ratio of MIC for Escherichia coli ERR8a to MIC for Escherichia coli NIHJ; type: functional
[45] = Displacement of [14C]benzylpenicillin from PBP1A in Pseudomonas aeruginosa ATCC 15692
Escherichia coli [46] = experiment: Antibacterial activity against Escherichia coli EIR4a selected at 4 times MIC of imipenem by microdilution method; type: functional
[47] = Displacement of [14C]benzylpenicillin from PBP4 in Staphylococcus aureus ATCC 6538P
Pseudomonas aeruginosa [48] = experiment: Antibacterial activity against Pseudomonas aeruginosa PRR4a selected at 4 times MIC of tomopenem by microdilution method; type: functional
[49] = Displacement of [14C]benzylpenicillin from PBP2 in Escherichia coli NIHJ
Escherichia coli [50] = experiment: Antibacterial activity against Escherichia coli EIR2a selected at 2 times MIC of imipenem by microdilution method; type: functional
Escherichia coli [51] = experiment: Ratio of MIC for Escherichia coli ERR2b to MIC for Escherichia coli NIHJ; type: functional
Staphylococcus aureus [52] = experiment: Antibacterial activity against Staphylococcus aureus SMR2a selected at 2 times MIC of meropenem by microdilution method; type: functional
Staphylococcus aureus [53] = experiment: Antibacterial activity against Staphylococcus aureus SMR4a […] MIC of meropenem by microdilution method; type: functional
[54] = Displacement of [14C]benzylpenicillin from PBP1B in Pseudomonas aeruginosa ATCC 15692
[55] = Displacement of [14C]benzylpenicillin from PBP 6 in Pseudomonas aeruginosa ATCC 15692

For `C[C@@H](O)[C@H]1C(=O)N2C(C(=O)O)=C(S[C@@H]3CN[C@H](C(=O)N(C)C)C3)[C@H](C)[C@H]12` [MEROPENEM], the IC50 (Staphylococcus aureus [1]) was 0.06 µg/mL (≈ 0.156 µM), the MBC (Staphylococcus aureus [1]) was 0.12 µg/mL (≈ 0.313 µM) and the MIC (Staphylococcus aureus [1]) was 0.06 µg/mL (≈ 0.156 µM). It also gave an IC50 [2] of 0.77 µg/mL (≈ 2.01 µM), an MBC (Pseudomonas aeruginosa [3]) of 1 µg/mL (≈ 2.61 µM) and an MIC (Pseudomonas aeruginosa [3]) of 1 µg/mL (≈ 2.61 µM). It also gave a Ratio MIC (Staphylococcus aureus [4]) of 8, a Ratio MIC (Staphylococcus aureus [5]) of 4 and an IC50 [6] of 0.044 µg/mL (≈ 0.115 µM). It also gave a Ratio MIC (Escherichia coli [7]) of 1, an IC50 [8] of 0.0033 µg/mL (≈ 0.00861 µM) and an IC50 [9] of 15 µg/mL (≈ 39.1 µM). The MIC (Staphylococcus aureus [10]) was 0.12 µg/mL, the MBC (Escherichia coli [11]) was 0.03 µg/mL (≈ 0.0782 µM) and the MIC (Escherichia coli [11]) was 0.03 µg/mL (≈ 0.0782 µM). It also gave an MIC (Escherichia coli [12]) of 0.03 µg/mL, a Ratio MIC (Escherichia coli [13]) of 2 and an MIC (Escherichia coli [14]) of 0.12 µg/mL. The MIC (Escherichia coli [15]) was 0.03 µg/mL, the Ratio MIC (Pseudomonas aeruginosa [16]) was 16 and the MIC (Escherichia coli [17]) was 0.06 µg/mL. For the same compound, the MIC (Pseudomonas aeruginosa [18]) was 4 µg/mL, the Ratio MIC (Escherichia coli [19]) was 1 and the Ratio MIC (Escherichia coli [20]) was 2. The Ratio MIC (Pseudomonas aeruginosa [21]) was 4, the IC50 [22] was 0.013 µg/mL (≈ 0.0339 µM) and the IC50 [23] was 1.2 µg/mL (≈ 3.13 µM). For the same compound, the MIC (Escherichia coli [24]) was 0.06 µg/mL, the MIC (Pseudomonas aeruginosa [25]) was 8 µg/mL and the Ratio MIC (Pseudomonas aeruginosa [26]) was 8. It also gave a Ratio MIC (Escherichia coli [27]) of 4, an MIC (Escherichia coli [28]) of 0.06 µg/mL and an MIC (Escherichia coli [29]) of 0.06 µg/mL. For the same compound, the MIC (Staphylococcus aureus [30]) was 0.25 µg/mL, the MIC (Escherichia coli [31]) was 0.03 µg/mL and the IC50 [32] was > 130 µg/mL. It also gave a Ratio MIC (Escherichia coli [33]) of 1, a Ratio MIC (Staphylococcus aureus [34]) of 8 and a Ratio MIC (Escherichia coli [35]) of 1. It also gave an IC50 [36] of 0.39 µg/mL (≈ 1.02 µM), a ratio (Staphylococcus aureus [37]) of 8 and an IC50 [38] of 4.5 µg/mL (≈ 11.7 µM). The IC50 [39] was 0.82 µg/mL (≈ 2.14 µM), the IC50 [40] was 0.26 µg/mL (≈ 0.678 µM) and the IC50 [41] was 0.047 µg/mL (≈ 0.123 µM). For the same compound, the Ratio MIC (Escherichia coli [42]) was 1, the IC50 [43] was 0.018 µg/mL (≈ 0.0469 µM) and the Ratio MIC (Escherichia coli [44]) was 2. For the same compound, the IC50 [45] was 0.12 µg/mL (≈ 0.313 µM), the MIC (Escherichia coli [46]) was 0.03 µg/mL and the IC50 [47] was 0.071 µg/mL (≈ 0.185 µM). It also gave an MIC (Pseudomonas aeruginosa [48]) of 2 µg/mL, an IC50 [49] of 0.016 µg/mL (≈ 0.0417 µM) and an MIC (Escherichia coli [50]) of 0.03 µg/mL. For the same compound, the Ratio MIC (Escherichia coli [51]) was 2, the MIC (Staphylococcus aureus [52]) was 0.25 µg/mL and the MIC (Staphylococcus aureus [53]) was 0.25 µg/mL. It also gave an IC50 [54] of 0.11 µg/mL (≈ 0.287 µM) and an IC50 [55] of 4.5 µg/mL (≈ 11.7 µM).
`C[C@H]1COc2c(N3CCN(C)CC3)c(F)cc3c(=O)c(C(=O)O)cn1c23.C[C@H]1COc2c(N3CCN(C)CC3)c(F)cc3c(=O)c(C(=O)O)cn1c23.O` [LEVOFLOXACIN] gave a Ratio MIC (Staphylococcus aureus [4]) of 2, a Ratio MIC (Staphylococcus aureus [5]) of 1 and an MIC (Staphylococcus aureus [10]) of 0.06 µg/mL. The MIC (Pseudomonas aeruginosa [18]) was 0.5 µg/mL, the MIC (Staphylococcus aureus [30]) was 0.12 µg/mL and the Ratio MIC (Staphylococcus aureus [34]) was 2. The ratio (Staphylococcus aureus [37]) was 1, the Ratio MIC (Escherichia coli [51]) was 2 and the MIC (Staphylococcus aureus [52]) was 0.12 µg/mL. The MIC (Staphylococcus aureus [53]) was 0.06 µg/mL.
